How the values were obtained:
HDAC = test: In vitro fluorescent histone deacetylase assay (Biomol HDAC fluorescent activity kit, HeLa cell nuclear extract); assay type: biochemical; conditions: 100 μM compound; HeLa cell nuclear extract as source of HDAC activity; 50 μM substrate, 10 min at room temperature
Experimental: Histone deacetylase (HDAC) activity assays were performed using the HDAC fluorescent activity assay/drug discovery kit (Biomol Research Laboratories, Plymouth Meeting, Pa.) essentially according to the manufacturer's instructions. The included HeLa cell nuclear extract, which contains a mosaic of HDAC enzymes and other nuclear factors, was used as the source of HDAC activity. The final substrate concentration in the assay mixture was 50 μM. The reaction was allowed to proceed for 10 min at room temperature before stopping the reaction. Test compounds were prepared as 20 mM stock solutions in DMSO (Molecular Biology grade, Sigma-Aldrich Co., St. Louis, Mo.) and stored at −70° C. Serial dilutions of test compounds were prepared in assay buffer immediately prior to testing. DMSO was determined in a separate trial to have no significant effect on the activity of this assay at concentrations up to 5%; the final DMSO concentration in the wells was no more than 2% and therefore DMSO effects were safely neglected. Assays were performed in white polystyrene 96-well half-area assay plates (Corning, Corning, N.Y.) and measured on a Wallace 1420 fluorescent plate reader (Wallac Oy, Turku, Finland) with an excitation wavelength of 355 nm, an emission wavelength of 460 nm, and a 1 sec signal averaging time.

HCT116 cells = test: Whole cell cytotoxicity assay: Sulforhodamine B; assay type: cell-based; conditions: Homo sapiens, HCT-116; 100 μM compound; 48 hours incubation with drug; Sulforhodamine B staining; read-out: % Inhibition of HCT116 cell growth @ 100 μM
Experimental: [The source words this procedure for another cell line and reports this cell line under the same test.] The following procedure can be found on the Developmental Therapeutics Program NCl/NIH web site at http://dtp.nci.nih.gov/brancehes/btb/ivclsp.html. • 1. Human tumor cell lines of HT29, A549 and MCF7 are grown in DMEM containing 10% fetal bovine serum and 2 mM L-glutamine. Cells are plated in a 96 well plate at a density of 5000 cells per well in 100 μL of growth medium and incubated at 37° C., 5% CO2, for 24 hours prior to the addition of experimental compounds. • 2. Experimental drugs are solubilized in DMSO for a final concentration of 20 mM immediately prior to use. Drugs are further diluted in growth media for a total of nine drug concentrations and a growth control. At the 24 hour time point, one plate of cells is fixed in situ with TCA as a measurement of the cell population at time zero, or the time of drug addition. • 3. The plates are further incubated with drug for an additional 48 hours. • 4. The cells are fixed in situ by gently aspirating off the culture media and then adding 50 μL of ice cold 10% TCA per well and incubated at 4° C. for 60 minutes. The plates are washed with tap water five times and allowed to air dry for 5 minute. • 5. 50 μL of a 0.4% (w/v) Sulforhodamine B solution in 1% (v/v) acetic acid is added per well and incubated for 30 minutes at room temperature. • 6. Following staining, plates are washed five times with 1% acetic acid to remove any unbound dye and then allowed to air dry for 5 minutes. • 7. Stain is solubilized with 100 μL of 10 mM Tris pH 10.5 per well and placed on an orbital rotator for 5 minutes. • 8. Absorbance is read at 570 nm.

Row | Compound | % Inhibition of HDAC @ 100 μM (HDAC) [%] | inhibition at 100 µM (HCT116 cells) [%]
1 | CC(=O)n1c2c(c3ccccc31)CCN(c1ncc(C(=O)NO)cn1)C2 [Example 29, 2-(9-acetyl-1,3,4,9-tetrahydro-2H-b-carbolin-2-yl)-N-hydroxypyrimidine-5-carboxamide] | 99.8 | 98
2 | O=C(NO)c1cnc(N2CCc3c([nH]c4ccccc34)C2)nc1 [Example 9, N-hydroxy-2-(1,3,4,9-tetrahydro-2H-b-carbolin-2-yl)pyrimidine-5-carboxamide] | 99.9 | 99.3
3 | CSc1cccc(-c2ccc3[nH]c4c(c3c2)CN(c2ncc(C(=O)NO)cn2)CC4)c1 [Example 49, N-hydroxy-2-{8-[3-(methylthio)phenyl]-1,3,4,5-tetrahydro-2H-pyrido[4,3-b]indol-2-yl}pyrimidine-5-carboxamide] | 99.9 | 99.3
4 | O=C(NO)c1cnc(N2CCc3c(n(CCO)c4ccccc34)C2)nc1 [Example 58, N-hydroxy-2-[9-(2-hydroxyethyl)-1,3,4,9-tetrahydro-2H-b-carbolin-2-yl]pyrimidine-5-carboxamide] | 97.7 | 96.3
5 | O=C(NO)c1cnc(N2CCc3[nH]c4ccc(-c5ccc(CO)cc5)cc4c3C2)nc1 [Example 107, N-hydroxy-2-{8-[4-(hydroxymethyl)phenyl]-1,3,4,5-tetrahydro-2H-pyrido[4,3-b]indol-2-yl}pyrimidine-5-carboxamide] | 99.9 | 92.7
6 | CS(=O)(=O)Nc1ccc2[nH]c3c(c2c1)CN(c1ncc(C(=O)NO)cn1)CC3 [Example 78, N-hydroxy-2-(8-(N-methylsulfonamido)-1,3,4,5-tetrahydro-2H-pyrido[4,3-b]indol-2-yl)pyrimidine-5-carboxamide] | 99.9 | 85.1
7 | CS(=O)(=O)NCc1cccc(-c2ccc3[nH]c4c(c3c2)CN(c2ncc(C(=O)NO)cn2)CC4)c1 [Example 83, N-hydroxy-2-{8-[3-(N-methylsulfonamidomethyl)phenyl]-1,3,4,5-tetrahydro-2H-pyrido[4,3-b]indol-2-yl}pyrimidine-5-carboxamide] | 99.9 | 94.7
8 | CC(C)c1ccc2[nH]c3c(c2c1)CN(c1ncc(C(=O)NO)cn1)CC3 [Example 38, N-hydroxy-2-{8-isopropyl-1,3,4,5-tetrahydro-2H-pyrido[4,3-b]indol-2-yl}pyrimidine-5-carboxamide] | 99.8 | 99.5
9 | O=C(NO)c1cnc(N2CCc3[nH]c4ccc([N+](=O)[O-])cc4c3C2)nc1 [Example 37, N-hydroxy-2-(8-nitro-1,3,4,5-tetrahydro-2H-pyrido[4,3-b]indol-2-yl)pyrimidine-5-carboxamide] | 99.9 | 97.1
10 | Cc1ccc2c(c1)C1CN(c3ncc(C(=O)NO)cn3)CCC1N2 (centres unmarked) [Example 75, N-hydroxy-2-(8-methyl-1,3,4,4a,5,9b-hexahydro-2H-pyrido[4,3-b]indol-2-yl)pyrimidine-5-carboxamide] | 99.9 | 98.4
11 | COc1ccc2[nH]c3c(c2c1)CCN(c1ncc(C(=O)NO)cn1)CC3 [Example 113, N-hydroxy-2-(9-methoxy-1,4,5,6-tetrahydroazepino[4,5-b]indol-3(2H)-1-yl)pyrimidine-5-carboxamide] | 100 | 98.7
12 | Cc1ccc2[nH]c3c(c2c1Cl)CN(c1ncc(C(=O)NO)cn1)CC3 [Example 54, N-hydroxy-2-(9-chloro-8-methyl-1,3,4,5-tetrahydro-2H-pyrido[4,3-b]indol-2-yl)pyrimidine-5-carboxamide] | 99.5 | 98.9
13 | Cc1ccc2[nH]c3c(c2c1)CN(c1ncc(C(=O)NO)cn1)CC3 [Example 13, N-hydroxy-2-(8-methyl-1,3,4,5-tetrahydro-2H-pyrido[4,3-b]indol-2-yl)pyrimidine-5-carboxamide] | 99.9 | 99.1
14 | O=C(NO)c1cnc(N2CCc3[nH]c4ccc(Cl)cc4c3C2)nc1 [Example 14, 2-(8-chloro-1,3,4,5-tetrahydro-2H-pyrido[4,3-b]indol-2-yl)-N-hydroxypyrimidine-5-carboxamide] | 99.9 | 98.1
15 | O=C(NO)c1ccc(N2CCc3c([nH]c4ccccc34)C2)cc1 [Example 18, N-hydroxy-4-(1,3,4,9-tetrahydro-2H-b-carbolin-2-yl)benzamide] | – | 98.5
16 | O=C(NO)c1cnc(N2CCc3[nH]c4ccccc4c3CC2)nc1 [Example 114, N-hydroxy-2-(1,4,5,6-tetrahydroazepino[4,5-b]indol-3(2H)-1-yl)pyrimidine-5-carboxamide] | – | 99.3
17 | CN(C)Cc1cccc(-c2ccc3[nH]c4c(c3c2)CN(c2ncc(C(=O)NO)cn2)CC4)c1 [Example 92, N-hydroxy-2-{8-[3-(N,N-dimethylaminomethyl)phenyl]-1,3,4,5-tetrahydro-2H-pyrido[4,3-b]indol-2-yl}pyrimidine-5-carboxamide] | – | 98.9
18 | CC(=O)Nc1ccc2[nH]c3c(c2c1)CN(c1ncc(C(=O)NO)cn1)CC3 [Example 77, N-hydroxy-2-(8-(N-acetamido)-1,3,4,5-tetrahydro-2H-pyrido[4,3-b]indol-2-yl)pyrimidine-5-carboxamide] | – | 98.1
19 | O=C(NO)c1cnc(N2CCc3[nH]c4ccc(-c5ccc(CN6CCSCC6)cc5)cc4c3C2)nc1 [Example 105, N-hydroxy-2-{8-[4-(thiomorpholin-4-ylmethyl)phenyl]-1,3,4,5-tetrahydro-2H-pyrido[4,3-b]indol-2-yl}pyrimidine-5-carboxamide] | – | 97
20 | O=C(NO)c1ccc(N2CCc3c([nH]c4ccccc34)C2)nc1 [Example 4, N-hydroxy-6-(1,3,4,9-tetrahydro-2H-b-carbolin-2-yl)nicotinamide] | – | 98.5
21 | O=C(NO)c1cnc(N2CCc3[nH]c4ccc(-c5cccnc5)cc4c3C2)nc1 [Example 47, N-hydroxy-2-{8-(pyridin-3-yl)-1,3,4,5-tetrahydro-2H-pyrido[4,3-b]indol-2-yl}pyrimidine-5-carboxamide] | – | 98.1
22 | O=C(NO)c1cnc(N2CCc3[nH]c4ccc(F)cc4c3CC2)nc1 [Example 115, N-hydroxy-2-(9-fluoro-1,4,5,6-tetrahydroazepino[4,5-b]indol-3(2H)-1-yl)pyrimidine-5-carboxamide] | – | 98.8
23 | O=C(NO)c1cnc(N2CCc3[nH]c4ccc(F)cc4c3C2)nc1 [Example 111, N-hydroxy-2-(8-fluoro-1,3,4,5-tetrahydro-2H-pyrido[4,3-b]indol-2-yl)pyrimidine-5-carboxamide] | – | 97.7
24 | O=C(NO)c1cnc(N2CCc3[nH]c4ccc(-c5cccc(C(=O)N6CCCC6)c5)cc4c3C2)nc1 [Example 42, N-hydroxy-2-{8-[3-(pyrrolidin-1-ylcarbonyl)phenyl]-1,3,4,5-tetrahydro-2H-pyrido[4,3-b]indol-2-yl}pyrimidine-5-carboxamide] | – | 88
25 | O=C(NO)c1cnc(N2CCc3[nH]c4ccc(-c5ccc(CN6CCCC6)cc5)cc4c3C2)nc1 [Example 103, N-hydroxy-2-{8-[4-(pyrrolidin-1-ylmethyl)phenyl]-1,3,4,5-tetrahydro-2H-pyrido[4,3-b]indol-2-yl}pyrimidine-5-carboxamide] | – | 98.9
26 | O=C(NO)c1cnc(N2CCc3[nH]c4cc(-c5cccc(CN6CCCC6)c5)ccc4c3C2)nc1 [Example 121, N-hydroxy-2-{7-[3-(pyrrolidin-1-ylmethyl)phenyl]-1,3,4,5-tetrahydro-2H-pyrido[4,3-b]indol-2-yl}pyrimidine-5-carboxamide] | – | 97.5
27 | CS(=O)(=O)Nc1cccc(-c2ccc3[nH]c4c(c3c2)CN(c2ncc(C(=O)NO)cn2)CC4)c1 [Example 88, N-hydroxy-2-{8-[3-(N-methylsulfonamido)phenyl]-1,3,4,5-tetrahydro-2H-pyrido[4,3-b]indol-2-yl}pyrimidine-5-carboxamide] | – | 98.4

Source: patent US7772245B2, “Inhibitors of histone deacetylase” (Miikana Therapeutics, Inc., priority 2005, dated 2010)
